Measured values taken from patent publication US11434242B2, “Dopamine-b-hydroxylase inhibitors” (BIAL-PORTELA & Cª, S.A., priority 2017, dated 2022).

Molecular target: T1, Dopamine beta hydroxylase (Homo sapiens, UniProt P09172)
T1 construct: 125 μl of plasma; tissue Instituto Português do Sangue Transplantação; host or cells: human plasma from healthy donors
T1 sequence (P09172 40-617 limits assumed): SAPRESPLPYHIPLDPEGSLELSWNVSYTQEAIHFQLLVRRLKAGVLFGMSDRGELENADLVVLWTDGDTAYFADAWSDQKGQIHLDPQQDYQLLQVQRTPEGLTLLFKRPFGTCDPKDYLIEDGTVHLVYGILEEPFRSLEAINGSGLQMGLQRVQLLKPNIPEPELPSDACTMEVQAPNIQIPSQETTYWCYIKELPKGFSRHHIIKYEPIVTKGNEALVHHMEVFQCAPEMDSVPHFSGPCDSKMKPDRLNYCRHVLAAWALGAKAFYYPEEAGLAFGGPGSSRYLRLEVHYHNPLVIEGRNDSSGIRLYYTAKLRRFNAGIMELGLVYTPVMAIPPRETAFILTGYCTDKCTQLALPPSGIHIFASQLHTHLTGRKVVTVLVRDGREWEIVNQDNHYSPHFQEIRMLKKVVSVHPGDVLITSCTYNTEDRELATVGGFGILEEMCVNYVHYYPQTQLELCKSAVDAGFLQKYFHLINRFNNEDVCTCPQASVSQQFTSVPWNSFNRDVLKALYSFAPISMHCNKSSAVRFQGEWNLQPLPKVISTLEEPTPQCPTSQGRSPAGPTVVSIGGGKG
Experiment: Dopamine beta hydroxylase activity in human plasma
Format: biochemical
Settings: for Plasma (0.01 μM), activity in % of control: inhibitor 0.01 μM; for Plasma (0.1 μM), activity in % of control: inhibitor 0.1 μM; for Plasma (1 μM), activity in % of control: inhibitor 1 μM
In short: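 Octopamine production from tyramine over 45 min at 37° C, measured photometrically at 330 nm after SCX extraction and periodate oxidation against an octopamine standard curve, indicates plasma DβH activity. Compounds tested at final 10, 100 and 1000 nM in human plasma, pH 5.0 cofactor buffer, 10 min preincubation; results as % of control.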

Plasma (0.01 μM), activity in % of control	Plasma (0.1 μM), activity in % of control	Plasma (1 μM), activity in % of control	Structure (SMILES)
46.1 % of control	7.3 % of control	–	Cn1c(CC(=O)N[C@@H]2CCOC2)c2n(c1=S)C[C@H](c1c(F)ccc(Cl)c1F)C2 [Example 250, 2-((S)-6-(3-chloro-2,6-difluorophenyl)-2-methyl-3-thioxo-2,5,6,7-tetrahydro-3H-pyrrolo[1,2-c]imidazol-1-yl)-N—((R)-tetrahydrofuran-3-yl)acetamide]
90.9 % of control	52.1 % of control	–	O=C(Cc1[nH]c(=S)n2c1[C@@H]1C[C@]1(c1cc(Cl)ccc1F)C2)N1CCCCC1 [Example 158, 2-((5aS,6aR)-5a-(5-chloro-2-fluorophenyl)-3-thioxo-2,3,5,5a,6,6a-hexahydrocyclopropa[3,4]pyrrolo[1,2-c]imidazol-1-yl)-1-(piperidin-1-yl)ethan-1-one]
88.6 % of control	40.3 % of control	–	O=C(Cc1[nH]c(=S)n2c1[C@@H]1C[C@]1(c1cc(Cl)ccc1F)C2)NCc1ccccc1 [Example 156, N-benzyl-2-((5aS,6aR)-5a-(5-chloro-2-fluorophenyl)-3-thioxo-2,3,5,5a,6,6a-hexahydrocyclopropa[3,4]pyrrolo[1,2-c]imidazol-1-yl)acetamide]
–	64.0 % of control	18.2 % of control	C[C@H](NC(=O)Cc1[nH]c(=S)n2c1C[C@H](c1c(F)c(F)cc(F)c1F)C2)C(N)=O [Example 26, (S)-2-(2-((R)-6-(2,3,5,6-tetrafluorophenyl)-3-thioxo-2,5,6,7-tetrahydro-3H-pyrrolo[1,2-c]imidazol-1-yl)acetamido)propanamide]
31.9 % of control	7.3 % of control	–	Cn1c(CC(=O)NC2COC2)c2n(c1=S)C[C@@]1(c3c(F)ccc(Cl)c3F)C[C@@H]21 [Example 400, 2-((5aS,6aR)-5a-(3-chloro-2,6-difluorophenyl)-2-methyl-3-thioxo-2,3,5,5a,6,6a-hexahydrocyclopropa[3,4]pyrrolo[1,2-c]imidazol-1-yl)-N-(oxetan-3-yl)acetamide]
62.3 % of control	11.1 % of control	–	O=C(Cc1[nH]c(=S)n2c1C[C@@H](c1c(F)ccc(Br)c1F)C2)NC1CCOCC1 [Example 410, (S)-2-(6-(3-bromo-2,6-difluorophenyl)-3-thioxo-2,5,6,7-tetrahydro-3H-pyrrolo[1,2-c]imidazol-1-yl)-N-(tetrahydro-2H-pyran-4-yl)acetamide]
–	70.9 % of control	14.7 % of control	NC(=O)C1CCN(C(=O)Cc2[nH]c(=S)n3c2C[C@H](c2c(F)c(F)cc(F)c2F)C3)CC1 [Example 86, (R)-1-(2-(6-(2,3,5,6-tetrafluorophenyl)-3-thioxo-2,5,6,7-tetrahydro-3H-pyrrolo[1,2-c]imidazol-1-yl)acetyl)piperidine-4-carboxamide]
89.2 % of control	49.0 % of control	–	CS(=O)(=O)CCNC(=O)Cc1[nH]c(=S)n2c1C[C@H](c1c(F)ccc(Br)c1F)C2 [Example 118, (R)-2-(6-(3-bromo-2,6-difluorophenyl)-3-thioxo-2,5,6,7-tetrahydro-3H-pyrrolo[1,2-c]imidazol-1-yl)-N-(2-(methylsulfonyl)ethyl)acetamide]
62.4 % of control	13.3 % of control	–	O=C(O)C(Cc1[nH]c(=S)n2c1C[C@H](c1c(F)c(F)cc(F)c1F)C2)C(=O)O [Example 201, (R)-2-((6-(2,3,5,6-tetrafluorophenyl)-3-thioxo-2,5,6,7-tetrahydro-3H-pyrrolo[1,2-c]imidazol-1-yl)methyl)malonic Acid]
–	67.9 % of control	19.5 % of control	O=C(Cc1[nH]c(=S)n2c1C[C@H](c1c(F)c(F)cc(F)c1F)C2)N1CCCC1 [Example 104, (R)-1-(pyrrolidin-1-yl)-2-(6-(2,3,5,6-tetrafluorophenyl)-3-thioxo-2,5,6,7-tetrahydro-3H-pyrrolo[1,2-c]imidazol-1-yl)ethan-1-one]
37.6 % of control	6.0 % of control	–	Cn1c(CC(=O)N[C@@H]2CCCOC2)c2n(c1=S)C[C@H](c1c(F)ccc(Br)c1F)C2 [Example 382, 2-((S)-6-(3-bromo-2,6-difluorophenyl)-2-methyl-3-thioxo-2,5,6,7-tetrahydro-3H-pyrrolo[1,2-c]imidazol-1-yl)-N—((R)-tetrahydro-2H-pyran-3-yl)acetamide]
–	55.7 % of control	10.3 % of control	O=C(Cc1[nH]c(=S)n2c1C[C@@H](c1c(F)c(F)cc(F)c1F)C2)NC1CCC1 [Example 99, (S)—N-cyclobutyl-2-(6-(2,3,5,6-tetrafluorophenyl)-3-thioxo-2,5,6,7-tetrahydro-3H-pyrrolo[1,2-c]imidazol-1-yl)acetamide]
62.1 % of control	13.2 % of control	–	Cn1c(CC(=O)NC2CCCC2)c2n(c1=S)C[C@@]1(c3c(F)ccc(Cl)c3F)C[C@@H]21 [Example 271, 2-((5aS,6aR)-5a-(3-chloro-2,6-difluorophenyl)-2-methyl-3-thioxo-2,3,5,5a,6,6a-hexahydrocyclopropa[3,4]pyrrolo[1,2-c]imidazol-1-yl)-N-cyclopentylacetamide]
90.8 % of control	76.1 % of control	–	Cn1c(CCc2cccnc2)c2n(c1=S)C[C@@H](c1c(F)c(F)cc(F)c1F)C2 [Example 259, (R)-2-methyl-1-(2-(pyridin-3-yl)ethyl)-6-(2,3,5,6-tetrafluorophenyl)-6,7-dihydro-2H-pyrrolo[1,2-c]imidazole-3(5H)-thione]
118.2 % of control	87.7 % of control	–	O=C(Cc1[nH]c(=S)n2c1C[C@H](c1c(F)ccc(Br)c1F)C2)NCCO [Example 119, (R)-2-(6-(3-bromo-2,6-difluorophenyl)-3-thioxo-2,5,6,7-tetrahydro-3H-pyrrolo[1,2-c]imidazol-1-yl)-N-(2-hydroxyethyl)acetamide]
–	100.2 % of control	45.6 % of control	CS(=O)(=O)NC(=O)Cc1[nH]c(=S)n2c1C[C@H](c1cc(F)ccc1F)C2 [Example 24, (R)-2-(6-(2,5-difluorophenyl)-3-thioxo-2,5,6,7-tetrahydro-3H-pyrrolo[1,2-c]imidazol-1-yl)-N-(methylsulfonyl)acetamide]
79.0 % of control	17.7 % of control	–	Cn1c(CC(=O)Nc2cnoc2)c2n(c1=S)C[C@@H](c1c(F)ccc(F)c1F)C2 [Example 347, (R)—N-(isoxazol-4-yl)-2-(2-methyl-3-thioxo-6-(2,3,6-trifluorophenyl)-2,5,6,7-tetrahydro-3H-pyrrolo[1,2-c]imidazol-1-yl)acetamide]
73.5 % of control	57.7 % of control	–	Cn1c(CC(=O)N2CCCO2)c2n(c1=S)C[C@H](c1c(F)ccc(Cl)c1F)C2 [Example 444, (S)-2-(6-(3-chloro-2,6-difluorophenyl)-2-methyl-3-thioxo-2,5,6,7-tetrahydro-3H-pyrrolo[1,2-c]imidazol-1-yl)-1-(isoxazolidin-2-yl)ethan-1-one]
85.7 % of control	28.2 % of control	–	Cn1cc(NC(=O)Cc2c3n(c(=S)n2C)C[C@H](c2c(F)ccc(Cl)c2F)C3)cn1 [Example 350, (S)-2-(6-(3-chloro-2,6-difluorophenyl)-2-methyl-3-thioxo-2,5,6,7-tetrahydro-3H-pyrrolo[1,2-c]imidazol-1-yl)-N-(1-methyl-1H-pyrazol-4-yl)acetamide]
–	69.2 % of control	16.7 % of control	CS(=O)(=O)NC(=O)Cc1[nH]c(=S)n2c1C[C@@H](c1cc(Br)ccc1F)C2 [Example 21, (S)-2-(6-(5-bromo-2-fluorophenyl)-3-thioxo-2,5,6,7-tetrahydro-3H-pyrrolo[1,2-c]imidazol-1-yl)-N-(methylsulfonyl)acetamide]

Structure (SMILES)	Plasma (0.01 μM), activity in % of control	Plasma (0.1 μM), activity in % of control	Plasma (1 μM), activity in % of control
CN(C)C(=O)CN1CCN(C(=O)Cc2[nH]c(=S)n3c2C[C@H](c2c(F)c(F)cc(F)c2F)C3)CC1 [Example 85, (R)—N,N-dimethyl-2-(4-(2-(6-(2,3,5,6-tetrafluorophenyl)-3-thioxo-2,5,6,7-tetrahydro-3H-pyrrolo[1,2-c]imidazol-1-yl)acetyl)piperazin-1-yl)acetamide]	–	59.1 % of control	12.2 % of control
